Results from a melting point compilation (Tetko et al.; mined from patent text by program, amines drawn as free bases though some values may be those of a salt).

SMILES	melting point [°C]
CCCCc1oc2ccc(C(=O)OC)cc2c1C(=O)c1ccc(OC)cc1	75 to 78
Cc1ccc2c(n1)CC(c1ccccc1C)CC2=O (stereo not drawn)	76 to 77
CCOC(=O)Nc1c(C)cc(Cc2cnc(N)nc2N)cc1C	192 to 193
CCCCc1nc(SCCCCCC(=O)O)c(C(=O)O)n1Cc1cc2c(cc1Cl)OCO2	128
CC1(CNC=O)CC(=O)c2ccccc2O1 (stereo not drawn)	96 to 98
CC(C)n1nc(C(Cl)C(=O)c2cccc(F)c2)ccc1=O (stereo not drawn)	65.5 to 66.5
COc1ccc(Cc2nnsc2-c2cccs2)cc1	72.2 to 73.3
CN(C)c1ncc(-c2cccc(-n3cnc4cc(-c5ccoc5)ccc43)c2)cn1	183 to 184
Cc1cc(C(O)(C=Cc2ccc(Cl)cc2)C(F)(F)F)ccc1N (stereo not drawn)	126 to 129
CN1C(=O)[C@H](NC(=O)/C=C/c2cccc(Br)c2)N=C(c2ccccc2)c2ccccc21	221
CCn1c(=O)c2[nH]c(/C=C/c3cc(C(F)(F)F)cc(C(F)(F)F)c3)nc2n(CC)c1=O	> 280
CC(=O)N1CC(C)(C)c2cc3nc[nH]c3cc21	214 to 216
Cc1cc(OCc2sc(-c3ccc(C(F)(F)F)cc3)nc2C)ccc1Cc1nn[nH]n1	165
CC(C)(C(=O)O)C(O)c1ccnc(-c2nc(=O)c3ccccc3s2)c1 (stereo not drawn)	235 to 236
CC1(C)CC(=O)C1(Cl)CC(Cl)(Cl)Cl (stereo not drawn)	75 to 76
CCCC(CC)(C(=O)N(C)C)n1cc(C)c(-c2ccccc2)n1 (stereo not drawn)	147 to 148
COc1cc2c(cc1OC)C(c1ccnc(-n3nc(-c4cccnc4)c4ccccc4c3=O)c1)=N[C@H](CO)C2	235 to 238
Cn1cc(-c2cc3cccnc3[nH]2)c2cc(C(=O)NC(C)(C)CO)ccc21	161 to 162
CCOC(=O)C1=C(c2ccc(-n3nc(C)nc3C)cc2)NC(C)=C(C(=O)Nc2ccccn2)C1c1ccccc1Cl (stereo not drawn)	130
O=C(CN1CCOCC1)Nc1ccc(-c2n[nH]c3c2Cc2ccccc2-3)cc1	291 to 292
CCCCc1nc2cccc(C(=O)OCc3ccncc3)c2n1Cc1ccc(-c2ccccc2-c2nnn[nH]2)cc1	179 to 180
Cc1ccc(S(=O)(=O)N2[C@H](CCCc3nnn(C)n3)CC[C@@H]2c2ccc(F)cc2)cc1 (racemic)	107
NCC(F)(F)C(F)(F)C(F)(F)C(F)(F)CN	44 to 45
CC(C)(C)Cc1c(C(C)(C)C)ssc1=S	81
CC#CCOc1ccc(S(=O)(=O)NC2(C(=O)NO)CCCCC2)cc1	82 to 84

SMILES	melting point [°C]
Cc1ccc(OC(=O)CCCC(=O)OOC(C)(C)C)cc1	50 to 55
Oc1nn(-c2ccccn2)c(-c2ccccc2)c1Cc1ccccc1	115 to 116
CC(C)(N)c1ccc(-c2nc(Nc3ccc(-n4cncn4)cc3)ncc2C#N)cc1	208 to 209
CCOC(=O)c1c(CC)nn2c(-c3cccnc3)ccnc12	119 to 120
Cc1cc(C)c2[nH]c(C(=O)O)cc2c1	254 to 256
Cc1nccc2c3ccc(OCc4cccc(F)c4)cc3n(Cc3cccc(F)c3)c12	148
CC(=O)NCc1cccc(Nc2nccc(-c3sc(N(C)c4cc(Cl)cc(Cl)c4)nc3C)n2)c1	213 to 214
CC(=NOCCOc1ccc(CC2SC(=O)NC2=O)cc1)c1ccc(-c2ccc(F)cc2)cc1 (stereo not drawn)	155 to 156
CCOCCc1ccc(OCCN(C(=O)n2ccnc2)c2ncnc(C)c2Cl)c(C)c1	87 to 88
CCOc1cc2c(c3c1OC(C)(C)C3)C(c1cccc(C(=O)NC)c1)=NC(C)(C)C2	173 to 174
CCOC(=O)CSc1cc(Cl)nc(NCc2ccc(Cl)cc2)n1	122 to 125
COc1ccnc(CCc2nc3cc(-c4ccc(NC(C)=O)cc4)cnc3[nH]2)c1	220 to 221
C=C1C(OC(C)=O)C(CO)OC1n1ccc(NC(C)=O)nc1=O (stereo not drawn)	174 to 175
O=C1CC2CS(=O)(=O)c3ccccc3C2=NN1c1ccc(Cl)cc1 (stereo not drawn)	168 to 170
BrC=C1c2ccccc2CCc2ccccc21	73.6
Nc1nc(Nc2ccc(S(N)(=O)=O)cc2)sc1C(=O)c1sc(Br)cc1Br	254 to 255
CC(C)(C)c1cc(C2=CCCCC2)c(O)c(C(C)(C)C)c1	102 to 104
Nc1n[nH]c2ccc(OCc3ccccc3)cc12	193 to 195
CCOC(=O)C(C(=O)COC(C)C)C1c2ccccc2C(=O)N1c1ccc2ccc(Cl)nc2n1 (stereo not drawn)	205
CCCCCCOc1ccc(-c2ccccc2)cc1	61 to 62
CN1CCN(c2ccc(OCc3cc(CCC(=O)O)c4c(c3)CC(NS(=O)(=O)c3ccc(Cl)cc3)CC4)cc2)CC1 (stereo not drawn)	148
FC(F)(F)Oc1ccc(C=Cc2nc[nH]n2)cc1	125 to 127
O=C(C=C(O)c1cccnc1)C1CCN(CCc2ccccc2)CC1	75 to 77
Cn1cc(C(N)=O)c(=O)c2ccc(Cl)cc21	> 240
CCCCCCCCCCCCc1cnn(C(C(=O)O)c2ccccc2)n1 (stereo not drawn)	94 to 98

SMILES	melting point [°C]
O=C(O)c1ccc(O)c(C(=O)C=Cc2ccc(OCc3ccc4ccccc4n3)cc2)c1	258 to 260
Oc1cc(-c2ccc(F)cc2)nc(-c2ccccn2)n1	197 to 198
CS(=O)(=O)c1ccc(-c2cnn(CC(F)(F)F)c(=O)c2Cc2cccc(F)c2)cc1	58 to 62
Cc1cc(C=NNC(N)=S)ncc1NO	197 to 198
N#Cc1cc(NCc2ccncc2)n(-c2c(Cl)cc(C(F)(F)F)cc2Cl)n1	> 300
CC1=C(c2ccccc2)n2nc(C)c(C(N)=O)c2NC1	208 to 210
CCN(CC)CC1CCCCN1CC(=O)N1c2ccccc2NC(=O)c2c1c(C)cn2C (stereo not drawn)	176 to 178
O=C(O)C(NC(=O)C(F)(F)F)c1ccc(Cl)cc1 (stereo not drawn)	170 to 172
CCOc1cc(-n2nc(C(=O)O)cc2-c2ccc(-c3ccco3)cc2)ccc1S(C)(=O)=O	256 to 257
CCOC(=O)C1CCN(c2nc(COc3ccc(CCl)cc3OC)c(C)s2)CC1	98 to 99
Cc1c(Cl)c(Oc2ncc(C(F)(F)F)cc2Cl)nn1C(=O)NC(C)C	57 to 59
O=C(Nc1ccc(N2CCCCC2)cc1)N(C[C@@H]1CCC[C@H](CN(C(=O)Nc2ccc(N3CCCCC3)cc2)C2CCCCC2)C1)C1CCCCC1	174 to 178
CCCCCCCCCCCCCCCCCC[C@@H]1OC(=O)C(O)=C1O	110 to 112
CCOc1c(NCc2ccc(C#N)c(CC)c2)c(=O)c1=O	239 to 242
c1ccc(CP(Cc2ccccc2)Cc2ccccc2-c2ccccc2CP(Cc2ccccc2)Cc2ccccc2)cc1	163 to 167
COc1ccc(NS(=O)(=O)c2cc(OC)c(OC)c(OC)c2)cc1O	145 to 146
CN(Cc1sc2c(=O)c(C(=O)NCc3ccc(Cl)cc3)cn(C)c2c1COCC[Si](C)(C)C)CC(O)c1cnccn1 (stereo not drawn)	155 to 156
CCCCCCCCCCCCCCCCCCOc1cc(C(=O)OC)cc(C(=O)OC)c1	54 to 55
Cc1ccc(C(=O)C2C(=O)CCC(C)(C)C2=O)cc1 (stereo not drawn)	78 to 79
COc1cnc(CSc2nc3cc4c(cc3[nH]2)OCO4)cc1OC	198 to 200
Cc1ccc(NS(=O)(=O)c2cccs2)c2[nH]c(C3=NCCS3)cc12	198 to 199
CS(=O)(=O)Nc1ccc(C=O)cc1Oc1ccc(F)cc1F	156 to 157
c1cncc(-c2nsnc2SCCCc2cccs2)c1	98 to 100
COc1cc2c3c(c1)c(=O)c(Cc1cccnc1)cn3-c1cc(Br)ccc1O2	49.7 to 50.9
CCCCN1C(=O)NC(CC(=O)O)C1=O (stereo not drawn)	132

SMILES	melting point [°C]
N#Cc1ccc2c(c1)C(c1ncnc3c1cnn3C1CCCC1)C(=O)N2 (stereo not drawn)	> 300
CN1Cc2c(-c3nc(CCl)cs3)ncn2-c2ccccc2C1=O	248 to 249
Cc1nc(-c2ccc(-c3cscn3)cc2)c(-c2ccc(S(N)(=O)=O)c(F)c2)o1	116 to 118
O=C(Nc1nc(-c2ccccc2)c(-c2nc3ccccc3c(=O)n2-c2ccccc2Cl)s1)c1ccccc1	212 to 214
CCOC(=O)C[C@H](NC(=O)/C=C/Sc1ccccc1)C(=O)OCC	100 to 102
O=c1cc(-c2ccccc2)oc(N2CCOCC2)c1	148 to 150
O=Cc1cc(S(=O)(=O)n2ccc3ccccc32)ccc1Br	106 to 108
CCn1c(C)c(C(C)=O)c(N)c1-c1ccccc1	107 to 108
CN1CCC(C2c3cccc4c3N(CC4)c3ccccc3N2C(=O)OCC(Cl)(Cl)Cl)CC1 (stereo not drawn)	160 to 162
COc1ccc(Cl)cc1N1CCN(CCNc2nccc(C(=O)N3CCC(Nc4nc(=O)cc[nH]4)CC3)n2)CC1	114 to 117
Cc1nc(N2CCCC(CO)C2)c2nc(-c3ccccc3)cc-2[nH]1 (stereo not drawn)	255 to 256
FC(F)(F)c1cccc(-c2snnc2S)c1	> 200
COc1cccc(CC(=O)O)c1OCCCc1cn(-c2ccc([N+](=O)[O-])cn2)nc1C(C)C	161 to 162
O=C(O)Cc1ccccc1CBr	110
O=C(O)c1cccc(CN2CCC(N3C(=O)Nc4ccccc4C3c3ccccc3)CC2)c1 (stereo not drawn)	> 250
Cn1c(=O)c2c(Cl)cccc2n2cnc(C(=O)OCC3CC3)c12	214
CN(CCN1C(=O)c2ccccc2C1=O)C(c1ccccc1)c1ccccc1	130 to 131
NC(=O)c1cc2c(c(C(=O)O)c1)NCCC2	268 to 269
Cc1cnnc2c(-c3ccc(F)cc3)c(-c3ccncc3)nn12	202 to 204
O=C(Nc1ccc(CN2CCCCC2)cc1)c1cccc(OCc2ccccc2)c1	137 to 138
Cc1ccc(S(=O)(=O)NCCCCOc2ccc(-n3ccnc3)cc2)cc1	96 to 98
Cc1ccc2[nH]cc(C3=C(Br)C(=O)N(C)C3=O)c2c1	158 to 159
Nc1nc(Cl)c(CCCl)c(Cl)n1	210 to 213
